“Also recorded” adds a separate entry of the source.
Columns and labels:
human OCT2 and MATE1 [1] = test: Intracellular accumulation of ASP+ in OCT2/MATE1 double-transfected MDCK cells; format: cell-based; settings: 120 min
Description: (§1) Cells were incubated with 5-HT3 antagonists in the apical chamber in HBSS pH 6.0 and 5-HT3 antagonists with ASP^+ (25 μM) in the basolateral chamber in HBSS pH 7.4 and incubated at 37 °C for 120 min. To measure time-dependent transcellular transport, an aliquot of the incubation medium (100 μL) from the apical chamber (receiving chamber) was collected at 40, 60, 90, and 120 min and replaced with an equal volume of fresh buffer containing 5-HT3 antagonist or the positive control chemical at the original concentration. […] Cells were lysed with 1% Triton X-100. […] Experiments were performed in three individual Transwell inserts.

[2] = no reference given, cited from earlier work
human OCT2 and MATE1 [3] = test: Inhibition of basolateral-to-apical transcellular transport of ASP+ in OCT2/MATE1 double-transfected MDCK cells (Transwell); settings: inhibitor 0.5–20 μM
Description: (§2) Control and OCT2/MATE1-expressing MDCK cells were evaluated for protein expression of OCT2 and MATE1 using SDS-PAGE and western blotting with specific primary antibodies (OCT2, sc292622 1:500 and MATE1, sc133390 1:250, Santa Cruz Biotechnology, Santa Cruz, CA, USA), followed by an antirabbit HRP-conjugated secondary antibody (1:1000, Sigma Aldrich, St. Louis, MO, USA) and Super Signal Western Dura Extended Duration Substrate (Pierce Biotechnology, Rockford, IL, USA). Detection was performed with a FluorChem imager (ProteinSimple, Santa Clara, CA, USA). Both MDCK cell lines were seeded on 0.4 μm transwell inserts (VWR, Radnor, PA, USA) at a density of 2 × 10^5 cells/cm^2. Transport experiments were performed 3 to 5 days after seeding. The integrity of MDCK monolayers was verified by measuring transepithelial electrical resistance (TEER) >150 Ω*cm^2 using an epithelial voltohmmeter, EVOM^2 (World Precision Instruments, Sarasota, FL). Proper formation of tight junctions was also verified by measurement of passive permeability of lucifer yellow in the basolateral-to-apical (B-to-A) direction. Lucifer yellow (20 μM) was applied to the basolateral chamber for 1 h, and media were collected from the apical chamber.
(§3) After washing the cells once with Hank’s Buffered Saline Solution (HBSS) pH 7.4, transport studies were initiated after aspirating the wash buffer from both the apical and basal chambers. […] Cells were lysed with 1% Triton X-100. […] Intracellular fluorescence was normalized to total protein concentration of cell lysates from each transwell using the BCA assay. Experiments were performed in three individual Transwell inserts.

OCT2 and MATE1 = test: as above; settings: human, probe ASP+ (25 μM, basolateral chamber)
Description: as §2, §3

[4] = system: vector control MDCK cells; test: Intracellular accumulation of ASP+ in vector control MDCK cells; format: cell-based, canine; settings: 120 min
Description: as §1

human OCT2 = biological target: T1, human OCT2 (Homo sapiens, UniProt O15244); test: Inhibition of ASP+ uptake in HEK293 cells overexpressing OCT2; format: cell-based; settings: ASP+ 10 μM
T1 construct: expressed in transfected cells; gift of Dr. Kathy Giacomini, UCSF
T1 sequence (O15244 1-555): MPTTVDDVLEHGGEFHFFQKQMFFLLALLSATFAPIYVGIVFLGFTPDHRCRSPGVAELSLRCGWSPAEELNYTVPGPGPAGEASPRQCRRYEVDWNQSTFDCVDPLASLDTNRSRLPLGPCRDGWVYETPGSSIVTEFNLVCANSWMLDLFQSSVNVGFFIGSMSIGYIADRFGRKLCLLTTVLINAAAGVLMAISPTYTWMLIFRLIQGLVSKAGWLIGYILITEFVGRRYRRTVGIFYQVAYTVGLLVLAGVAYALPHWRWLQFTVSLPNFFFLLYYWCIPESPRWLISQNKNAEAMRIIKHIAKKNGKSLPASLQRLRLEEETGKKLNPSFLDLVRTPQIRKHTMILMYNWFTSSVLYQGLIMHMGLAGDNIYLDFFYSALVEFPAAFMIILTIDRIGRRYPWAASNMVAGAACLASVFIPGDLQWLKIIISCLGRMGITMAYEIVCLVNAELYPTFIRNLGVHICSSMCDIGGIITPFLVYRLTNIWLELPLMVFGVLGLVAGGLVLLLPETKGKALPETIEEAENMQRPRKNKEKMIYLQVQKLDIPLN
Description: (§4) After washing once with prewarmed Hank’s Buffered Saline Solution (HBSS), cells were preincubated for 30 min at 37 °C with various 5-HT3 antagonists for OCT2 cells or in a 30 mM NH4Cl solution in HBSS at pH 6.5 for MATE1 cells for intracellular acidification. Uptake into OCT2 cells was initiated through exposure to 10 μM of fluorescent substrate ASP^+ directly in the incubation media. Uptake into MATE1 cells was initiated by application of HBSS at pH 7.4 containing 5-HT3 antagonists and 10 μM of fluorescent substrate ASP^+. […] Media was removed and washed four times with ice-cold HBSS. Cells were lysed with 1% Triton X-100. […] Intracellular fluorescence was normalized to total protein concentration of cell lysates from each well using the bicinchoninic acid (BCA) assay (Pierce Biotechnology, Rockford, IL, USA). Experiments were repeated three separate times, with three to four replicates in each experiment.
(§5) GraphPad Prism v6 (GraphPad Software, La Jolla, CA, USA) was used for statistical analysis.

MATE1 = biological target: T2, MATE1 (Homo sapiens, UniProt Q96FL8); test: Inhibition of ASP+ uptake in HEK293 cells overexpressing MATE1; format: cell-based; settings: inhibitor 10 μM, HEK293-MATE1 (data not shown)
T2 construct: expressed in transfected cells; gift of Dr. Kathy Giacomini, UCSF
T2 sequence (Q96FL8 1-570): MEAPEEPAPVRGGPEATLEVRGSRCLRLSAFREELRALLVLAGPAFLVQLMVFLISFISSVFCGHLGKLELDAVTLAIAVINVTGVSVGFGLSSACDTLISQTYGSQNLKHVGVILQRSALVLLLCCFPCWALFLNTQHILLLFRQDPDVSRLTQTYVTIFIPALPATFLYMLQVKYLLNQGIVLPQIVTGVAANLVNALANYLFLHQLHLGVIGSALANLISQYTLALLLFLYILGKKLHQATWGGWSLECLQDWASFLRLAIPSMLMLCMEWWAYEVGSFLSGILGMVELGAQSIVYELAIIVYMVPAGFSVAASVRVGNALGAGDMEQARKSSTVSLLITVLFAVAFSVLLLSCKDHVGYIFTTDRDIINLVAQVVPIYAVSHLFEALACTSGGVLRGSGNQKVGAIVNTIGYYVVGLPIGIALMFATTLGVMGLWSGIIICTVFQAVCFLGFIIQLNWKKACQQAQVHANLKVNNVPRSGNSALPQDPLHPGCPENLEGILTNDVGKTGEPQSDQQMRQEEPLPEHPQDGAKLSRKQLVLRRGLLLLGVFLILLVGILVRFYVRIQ
Description: as §4, §5

[5] = substrate: CN(C)c1ccc(/C=C/c2cc[n+](C)cc2)cc1; test: Concentration-dependent uptake of ASP+ in OCT2-expressing HEK293 cells; format: cell-based, human; settings: other: OCT2-expressing HEK293, 0–100 μM, 1 min; 37.0 °C
Description: Figure 2 Time and Concentration-Dependent Accumulation of ASP^+ in HEK293 Cells Overexpressing OCT2 or MATE1. HEK cells expressing empty vector (EV), OCT2, or MATE1 were incubated for different time periods (0.5–20 min, 10 μM ASP^+, 37 °C) to evaluate time-dependent uptake (A) or with increasing concentrations of ASP^+ (0–100 μM, 1 min 37 °C) for concentration-dependent uptake (B) on a shaker. Specific transport uptake is shown in dashed lines. Intracellular fluorescence was quantified and normalized to protein concentration. Data are presented as mean ± SE (n = 3).
OCT2- and MATE1-overexpressing HEK293 cells were seeded in clear poly-^D-lysine-coated 24-well plates (Fisher Scientific, Hanover Park, IL, USA) and grown for 24 h until approximately 90% confluent. […]
GraphPad Prism v6 (GraphPad Software, La Jolla, CA, USA) was used for statistical analysis. Km and Vmax were calculated using nonlinear regression (Michaelis–Menten enzyme kinetics equation, (Y = Vmax × X/(Km + X), fit for least squares). Data with two variables were analyzed using a two-way ANOVA followed by a one-way ANOVA and/or Dunnett’s post-hoc test for multiple comparisons. IC50 values were calculated via a nonlinear regression to fit least squares. Differences were considered statistically significant at p < 0.05.

For Cc1nccn1CC1CCc2c(c3ccccc3n2C)C1=O (centres unmarked) [Ondansetron], the “increase in intracellular ASP+ accumulation” value (human OCT2 and MATE1 [1]; inhibitor 0.5 and 2.5 μM) is given as 1.3 fold, the “effect on intracellular ASP+ accumulation” value (human OCT2 and MATE1 [1]; inhibitor 0.5–20 μM, ASP+ 25 μM) is given as “at concentrations of 0.5 and 2.5 μM caused significant intracellular accumulation of ASP^+; also recorded: no difference compared to vehicle at higher concentrations (10 and 20 μM)” and the half-life [2] is given as < 6 h. The “metabolized by cytochrome P450 enzymes in the liver” value ([2]; range for the named drugs together) was 48–95%, the “inhibition of basolateral-to-apical transcellular transport of ASP+, up to” value (human OCT2 and MATE1 [3]) was “up to 64%” and the “effect on B-to-A transport of ASP+” value (human OCT2 and MATE1 [3]; 40–120 min, ASP+ 25 μM) was “inhibited the B-to-A transport of ASP^+ in a concentration-dependent manner; also recorded: inhibited the basolateral-to-apical ASP^+ secretion at all concentrations tested”. The inhibition at 120 min, 20 μM (OCT2 and MATE1) was 36% and the “decrease in accumulation of ASP+ in control cells” value ([4]; high concentrations of inhibitor) was 40%.

In the case of Cc1cc2c(s1)Nc1ccccc1N=C2N1CCN(C)CC1 [olanzapine], the “decrease in intracellular accumulation of ASP+” value (human OCT2 and MATE1 [1]; inhibitor 20 μM) is reported as 51%, the “effect on ASP+ uptake in OCT2-expressing HEK293 cells” value (human OCT2) is reported as “inhibited OCT2 activity across a range of concentrations” and the “inhibition of MATE1 activity” value (MATE1) is reported as “None of these drugs inhibited MATE1 activity”. The “effect on intracellular accumulation of ASP+ in control cells” value ([4]; cimetidine 5 and 50 μM, pyrimethamine 1 μM, olanzapine 20 μM) was “modest decrease in ASP^+ accumulation”.

B1: human OCT2 (Homo sapiens) (protein)
chain: MPTTVDDVLEHGGEFHFFQKQMFFLLALLSATFAPIYVGIVFLGFTPDHRCRSPGVAELSLRCGWSPAEELNYTVPGPGPAGEASPRQCRRYEVDWNQSTFDCVDPLASLDTNRSRLPLGPCRDGWVYETPGSSIVTEFNLVCANSWMLDLFQSSVNVGFFIGSMSIGYIADRFGRKLCLLTTVLINAAAGVLMAISPTYTWMLIFRLIQGLVSKAGWLIGYILITEFVGRRYRRTVGIFYQVAYTVGLLVLAGVAYALPHWRWLQFTVSLPNFFFLLYYWCIPESPRWLISQNKNAEAMRIIKHIAKKNGKSLPASLQRLRLEEETGKKLNPSFLDLVRTPQIRKHTMILMYNWFTSSVLYQGLIMHMGLAGDNIYLDFFYSALVEFPAAFMIILTIDRIGRRYPWAASNMVAGAACLASVFIPGDLQWLKIIISCLGRMGITMAYEIVCLVNAELYPTFIRNLGVHICSSMCDIGGIITPFLVYRLTNIWLELPLMVFGVLGLVAGGLVLLLPETKGKALPETIEEAENMQRPRKNKEKMIYLQVQKLDIPLN
notes: expressed in transfected cells; gift of Dr. Kathy Giacomini, UCSF
B1 gave a Km [5] of 2.9 µM and a Vmax [5] of 8.1 nmol/mg/min.
